# Laboratory results reported in ChEMBL document CHEMBL1201862, “PubChem BioAssay data set” (2004).
# Active and inactive are the calls of the source.
# Tests used:
# [1] = target: T1, Low molecular weight phosphotyrosine protein phosphatase (Homo sapiens, UniProt P24666); assay type: functional; conditions: read-out: IC50_Mean
# [2] = target: T1, Low molecular weight phosphotyrosine protein phosphatase; assay type: functional; conditions: read-out: IC50_Mean; remark: listed apart in the source
# [3] = target: T2, Oxysterols receptor LXR-beta (Homo sapiens, UniProt P55055); assay type: functional, cell-based;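 further: agonist activity at LXR measured by a cell-based luminescence readout across a dose range, run as a counterscreen for daf-12 agonists; HEK293 cells with Gal4-LXR fusion and GAL4-driven luciferase reporter; potency for activation of Gal4-LXR reporter so compounds are agonists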
# T2 sequence (P55055 whole entry): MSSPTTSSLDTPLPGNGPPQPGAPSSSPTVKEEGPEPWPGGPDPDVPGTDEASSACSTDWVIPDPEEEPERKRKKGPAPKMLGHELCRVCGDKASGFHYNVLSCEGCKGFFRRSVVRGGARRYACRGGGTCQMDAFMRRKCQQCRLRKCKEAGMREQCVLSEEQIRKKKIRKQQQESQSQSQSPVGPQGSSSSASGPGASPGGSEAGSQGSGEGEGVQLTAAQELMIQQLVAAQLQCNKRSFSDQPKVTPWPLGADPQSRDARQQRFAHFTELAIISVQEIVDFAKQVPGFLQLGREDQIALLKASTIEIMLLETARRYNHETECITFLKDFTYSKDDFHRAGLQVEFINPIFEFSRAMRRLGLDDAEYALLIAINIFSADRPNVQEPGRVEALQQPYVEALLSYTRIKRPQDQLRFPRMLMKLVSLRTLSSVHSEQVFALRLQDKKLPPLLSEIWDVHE
# [4] = target: T3, Nuclear receptor subfamily 0 group B member 1 (Homo sapiens, UniProt P51843); assay type: functional, cell-based
# T3 sequence (P51843 whole entry): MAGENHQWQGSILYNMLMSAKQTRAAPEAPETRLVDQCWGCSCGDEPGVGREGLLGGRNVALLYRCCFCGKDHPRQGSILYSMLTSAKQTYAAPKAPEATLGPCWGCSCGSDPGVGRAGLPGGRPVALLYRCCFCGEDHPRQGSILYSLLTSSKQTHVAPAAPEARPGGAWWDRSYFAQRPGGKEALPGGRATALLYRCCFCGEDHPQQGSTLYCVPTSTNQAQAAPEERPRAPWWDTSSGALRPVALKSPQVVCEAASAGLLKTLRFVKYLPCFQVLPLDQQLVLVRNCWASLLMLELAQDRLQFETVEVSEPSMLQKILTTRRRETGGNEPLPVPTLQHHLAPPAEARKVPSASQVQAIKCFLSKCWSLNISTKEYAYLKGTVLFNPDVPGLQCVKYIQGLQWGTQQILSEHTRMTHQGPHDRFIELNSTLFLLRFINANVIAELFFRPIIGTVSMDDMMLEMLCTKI
# Fatty acid synthase [5] = target: T4, Fatty acid synthase (Homo sapiens, UniProt P49327); assay: FAS thioesterase domain inhibitors, dose response, biochemical, kinetic fluorescence intensity (AID 624326); assay type: functional;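 further: rate of fluorescence rise from hydrolysis of a fluorogenic O-methyl fluorescein ester substrate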
# T4 sequence (P49327 whole entry, the tested form may be a part): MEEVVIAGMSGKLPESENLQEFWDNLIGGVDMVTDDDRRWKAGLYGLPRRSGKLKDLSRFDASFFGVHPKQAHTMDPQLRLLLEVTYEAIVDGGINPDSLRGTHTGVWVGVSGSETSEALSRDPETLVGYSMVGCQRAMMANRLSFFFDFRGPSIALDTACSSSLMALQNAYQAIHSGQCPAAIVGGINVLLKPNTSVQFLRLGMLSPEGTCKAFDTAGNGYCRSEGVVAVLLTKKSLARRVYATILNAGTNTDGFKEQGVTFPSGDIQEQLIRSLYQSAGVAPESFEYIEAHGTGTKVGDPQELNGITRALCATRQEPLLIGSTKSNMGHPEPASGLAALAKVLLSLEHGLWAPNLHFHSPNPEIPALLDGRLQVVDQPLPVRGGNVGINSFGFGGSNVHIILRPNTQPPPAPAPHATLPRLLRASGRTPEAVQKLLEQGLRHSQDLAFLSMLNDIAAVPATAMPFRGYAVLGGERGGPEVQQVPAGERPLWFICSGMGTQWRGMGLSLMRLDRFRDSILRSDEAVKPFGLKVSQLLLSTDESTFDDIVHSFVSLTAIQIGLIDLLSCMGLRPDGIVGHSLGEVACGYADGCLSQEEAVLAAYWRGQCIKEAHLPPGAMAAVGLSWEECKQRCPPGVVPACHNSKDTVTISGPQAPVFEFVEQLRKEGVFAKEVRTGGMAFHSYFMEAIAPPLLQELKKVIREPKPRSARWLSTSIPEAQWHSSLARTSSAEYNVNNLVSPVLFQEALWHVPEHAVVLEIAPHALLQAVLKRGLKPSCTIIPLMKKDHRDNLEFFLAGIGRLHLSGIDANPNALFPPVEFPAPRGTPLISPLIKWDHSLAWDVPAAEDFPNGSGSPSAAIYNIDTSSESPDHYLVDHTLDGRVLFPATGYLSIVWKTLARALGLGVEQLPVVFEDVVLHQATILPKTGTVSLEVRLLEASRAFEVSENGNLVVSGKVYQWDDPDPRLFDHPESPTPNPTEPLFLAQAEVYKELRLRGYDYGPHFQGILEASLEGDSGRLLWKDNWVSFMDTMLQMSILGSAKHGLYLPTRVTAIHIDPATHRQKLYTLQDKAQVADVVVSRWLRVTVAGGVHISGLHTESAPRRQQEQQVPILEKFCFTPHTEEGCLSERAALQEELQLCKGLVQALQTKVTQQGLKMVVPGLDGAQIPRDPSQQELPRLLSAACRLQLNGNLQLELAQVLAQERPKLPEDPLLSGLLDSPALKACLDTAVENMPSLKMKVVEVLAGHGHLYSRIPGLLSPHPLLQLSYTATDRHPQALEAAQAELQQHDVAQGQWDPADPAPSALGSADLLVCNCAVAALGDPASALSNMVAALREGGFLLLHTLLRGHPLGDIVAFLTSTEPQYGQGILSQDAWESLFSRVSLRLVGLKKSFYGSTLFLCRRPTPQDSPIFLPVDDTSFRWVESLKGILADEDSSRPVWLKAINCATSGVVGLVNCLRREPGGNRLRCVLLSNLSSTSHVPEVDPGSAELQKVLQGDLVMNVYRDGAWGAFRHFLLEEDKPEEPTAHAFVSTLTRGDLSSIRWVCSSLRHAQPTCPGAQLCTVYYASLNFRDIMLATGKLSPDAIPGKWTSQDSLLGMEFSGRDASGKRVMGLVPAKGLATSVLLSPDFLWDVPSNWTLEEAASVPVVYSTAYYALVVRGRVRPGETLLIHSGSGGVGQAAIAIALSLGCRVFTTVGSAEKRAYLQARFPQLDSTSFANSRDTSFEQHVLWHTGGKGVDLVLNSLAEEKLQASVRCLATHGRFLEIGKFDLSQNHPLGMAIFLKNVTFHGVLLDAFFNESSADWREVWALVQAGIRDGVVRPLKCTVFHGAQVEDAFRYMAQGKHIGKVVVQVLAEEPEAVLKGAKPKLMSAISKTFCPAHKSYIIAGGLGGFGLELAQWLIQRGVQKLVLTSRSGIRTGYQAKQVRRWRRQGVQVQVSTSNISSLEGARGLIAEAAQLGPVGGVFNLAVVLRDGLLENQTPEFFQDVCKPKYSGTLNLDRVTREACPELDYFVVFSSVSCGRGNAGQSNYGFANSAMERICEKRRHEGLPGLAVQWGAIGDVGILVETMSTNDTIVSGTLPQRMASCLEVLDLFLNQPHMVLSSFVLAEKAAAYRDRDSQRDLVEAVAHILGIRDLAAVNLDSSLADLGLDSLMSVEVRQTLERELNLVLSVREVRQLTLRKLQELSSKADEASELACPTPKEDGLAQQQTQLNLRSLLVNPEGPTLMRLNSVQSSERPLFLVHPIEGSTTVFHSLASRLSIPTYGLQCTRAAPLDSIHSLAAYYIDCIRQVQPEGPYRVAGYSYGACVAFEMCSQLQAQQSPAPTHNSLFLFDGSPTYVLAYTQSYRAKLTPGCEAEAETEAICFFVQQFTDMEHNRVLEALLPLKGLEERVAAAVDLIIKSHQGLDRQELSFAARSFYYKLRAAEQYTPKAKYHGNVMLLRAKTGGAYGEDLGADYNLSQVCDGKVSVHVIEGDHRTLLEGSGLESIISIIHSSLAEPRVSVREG
# Fatty acid synthase [6] = target: T4, Fatty acid synthase; assay: FAS thioesterase domain inhibitors, dose response, biochemical, endpoint fluorescence intensity, uHTS hits (AID 624327); assay type: functional;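 further: fluorescence from hydrolysis of an O-methyl fluorescein acyl ester substrate by the enzyme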
# [7] = HEp-2 cell cytotoxicity, dose response, cytotoxicity control for RSV inhibitor project, HTS (AID 2410); assay type: functional; conditions: human respiratory syncytial virus
# cells = assay type: functional, cell-based
# [8] = target: T5, Probable nicotinate-nucleotide adenylyltransferase (Staphylococcus aureus (strain N315), UniProt P65502); assay type: functional, Staphylococcus aureus subsp. aureus N315;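 on IC50 Mean: confirmatory dose-response retesting of NadD inhibitor hits first found in an ultra-high-throughput screen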
# T5 sequence (P65502 whole entry): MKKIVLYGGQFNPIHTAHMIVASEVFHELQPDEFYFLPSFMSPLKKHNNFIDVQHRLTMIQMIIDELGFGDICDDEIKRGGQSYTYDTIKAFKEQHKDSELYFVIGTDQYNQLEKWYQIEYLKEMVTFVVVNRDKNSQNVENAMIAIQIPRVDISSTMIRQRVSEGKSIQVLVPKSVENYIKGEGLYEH
# [9] = target: T5, Probable nicotinate-nucleotide adenylyltransferase; assay type: functional, Staphylococcus aureus subsp. aureus N315; conditions: read-out: IC50_Mean
# [10] = target: Disintegrin and metalloproteinase domain-containing protein 17 (Homo sapiens, UniProt P78536); assay: exosite inhibitors of ADAM17, dose response, biochemical (AID 743260)
# [11] = Luminescence Cell-Based Dose Retest to Confirm Inhibitors of Cancer Stem Cells. [Related pubchem assays (depositor defined):AID2717, AID2721]; assay type: functional; conditions: Homo sapiens
# [12] = ADAM10 protease inhibitors, dose response, selectivity assay for ADAM17 exosite inhibitor project, biochemical, FRET peptide substrate, recombinant human ADAM10 (AID 743259);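 further: ADAM10 enzyme cleaving a FRET peptide substrate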
# Vero = assay: Vero cell toxicity, dose response, cytotoxicity control, plate reader, cherry-pick samples (AID 687020); assay type: functional, cell-based; conditions: Chlorocebus sabaeus
# Caspase-6 = target: T6, Caspase-6 (Homo sapiens, UniProt P55212); assay: human caspase-6 inhibitors, dose response, biochemical, VEID-R110 fluorescence, cherry-pick (AID 720632)
# T6 sequence (P55212 whole entry): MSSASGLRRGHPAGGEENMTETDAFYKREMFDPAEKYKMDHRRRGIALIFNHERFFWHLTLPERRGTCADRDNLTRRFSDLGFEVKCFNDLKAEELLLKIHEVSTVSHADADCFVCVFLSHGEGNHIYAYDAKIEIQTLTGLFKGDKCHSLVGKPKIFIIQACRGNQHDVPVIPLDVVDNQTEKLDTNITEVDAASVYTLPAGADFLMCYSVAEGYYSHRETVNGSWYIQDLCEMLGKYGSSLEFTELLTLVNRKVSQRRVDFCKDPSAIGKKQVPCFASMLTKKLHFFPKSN
# Beta-lactamase [13] = target: T7, Beta-lactamase (Pseudomonas aeruginosa, UniProt Q79MP6); assay: […] counterscreen for selective VIM-2 inhibitors: dose response biochemical high throughput screening assay to identify inhibitors of IMP-1 metallo-beta-lactamase.
# T7 sequence (Q79MP6 whole entry): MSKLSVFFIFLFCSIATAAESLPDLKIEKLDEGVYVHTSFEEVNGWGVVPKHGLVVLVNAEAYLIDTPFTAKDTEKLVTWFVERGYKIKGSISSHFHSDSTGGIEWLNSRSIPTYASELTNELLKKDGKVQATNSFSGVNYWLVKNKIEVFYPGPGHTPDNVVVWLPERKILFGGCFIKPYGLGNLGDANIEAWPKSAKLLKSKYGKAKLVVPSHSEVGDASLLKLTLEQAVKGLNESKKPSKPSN
# Beta-lactamase [14] = target: Beta-lactamase (Salmonella choleraesuis (strain SC-B67), UniProt Q5J463); assay: Epi-absorbance-based counterscreen for selective VIM-2 inhibitors: dose response biochemical high throughput screening assay to identify inhibitors of TEM-1 serine-beta-lactamase.
# Beta-lactamase [15] = target: T7, Beta-lactamase; assay: IMP-1 metallo-beta-lactamase inhibitors, dose response, selectivity assay for VIM-2 inhibitor project, biochemical, epi-absorbance (AID 1920)
# [16] = target: T3, Nuclear receptor subfamily 0 group B member 1; assay: Luminescence-based cell-based high throughput dose response assay for inhibitors of the orphan nuclear receptor subfamily 0, group B, member 1 (DAX1; NR0B1). [Related pubchem assays (depositor defined):AID504766, AID504790]; assay type: functional
# [17] = HepG2 cell cytotoxicity, dose response, cytotoxicity control, ATP luminescence, cherry-pick, activator set 2 (AID 1053143); assay type: functional, cell-based
# HEK293 = assay: cells; assay type: functional, cell-based; conditions: Homo sapiens
# Streptococcus = assay: Group A Streptococcus viability loss, dose response, counter-screen for streptokinase expression inhibitor project, luminescence, BacTiterGlo (AID 1915); assay type: functional, organism-based;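 further: potency for reduction of bacterial viability or growth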
# [18] = target: Matrix metalloproteinase-14 (Homo sapiens, UniProt P50281); assay: Dose Response confirmation of uHTS hits for a small molecule inhibitors of MT1-MMP activation in a fluorescence assay set 1.; assay type: functional
# Nonstructural protein 1 = Nonstructural protein 1 (Influenza A virus, UniProt Q194T2); assay type: functional, Influenza A virus (A/California/07/2009(H1N1))
# [19] = test system: Streptococcus sp. 'group A'; assay: growth inhibition of control SK(-) GAS strain, dose response, counter-screen for streptokinase expression inhibitor project, luminescence, kanamycin, BacTiterGlo, confirmation (AID 1900); assay type: functional, organism-based
# Streptokinase A = target: T8, Streptokinase A (Streptococcus pyogenes serotype M1, UniProt P10520); assay: S. pyogenes streptokinase expression inhibitors, potency, dose response, plasminogen activation absorbance, OD405 (AID 1914); assay type: functional, Streptococcus pyogenes M1 GAS;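 further: secreted streptokinase activity via plasminogen activation per viability signal from cell pellet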
# T8 sequence (P10520 whole entry): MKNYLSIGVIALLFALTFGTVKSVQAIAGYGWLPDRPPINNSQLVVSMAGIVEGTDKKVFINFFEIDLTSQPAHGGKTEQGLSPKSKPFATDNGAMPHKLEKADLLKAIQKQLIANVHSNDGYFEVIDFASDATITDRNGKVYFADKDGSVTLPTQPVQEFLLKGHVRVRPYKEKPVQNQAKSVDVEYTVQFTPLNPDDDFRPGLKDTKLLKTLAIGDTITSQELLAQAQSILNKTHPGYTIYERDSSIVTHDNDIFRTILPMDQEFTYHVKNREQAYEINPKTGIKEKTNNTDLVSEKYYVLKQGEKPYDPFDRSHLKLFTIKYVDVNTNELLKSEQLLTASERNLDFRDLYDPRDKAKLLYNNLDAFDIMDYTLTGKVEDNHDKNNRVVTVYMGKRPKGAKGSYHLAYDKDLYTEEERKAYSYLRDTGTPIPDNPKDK
# [20] = target: T9, Protein disulfide-isomerase (Homo sapiens, UniProt P07237); assay: PDI inhibitors, insulin turbidity readout, dose response, biochemical, absorbance, cherry-picked samples, set 2 (AID 624274); assay type: functional
# T9 sequence (P07237 whole entry): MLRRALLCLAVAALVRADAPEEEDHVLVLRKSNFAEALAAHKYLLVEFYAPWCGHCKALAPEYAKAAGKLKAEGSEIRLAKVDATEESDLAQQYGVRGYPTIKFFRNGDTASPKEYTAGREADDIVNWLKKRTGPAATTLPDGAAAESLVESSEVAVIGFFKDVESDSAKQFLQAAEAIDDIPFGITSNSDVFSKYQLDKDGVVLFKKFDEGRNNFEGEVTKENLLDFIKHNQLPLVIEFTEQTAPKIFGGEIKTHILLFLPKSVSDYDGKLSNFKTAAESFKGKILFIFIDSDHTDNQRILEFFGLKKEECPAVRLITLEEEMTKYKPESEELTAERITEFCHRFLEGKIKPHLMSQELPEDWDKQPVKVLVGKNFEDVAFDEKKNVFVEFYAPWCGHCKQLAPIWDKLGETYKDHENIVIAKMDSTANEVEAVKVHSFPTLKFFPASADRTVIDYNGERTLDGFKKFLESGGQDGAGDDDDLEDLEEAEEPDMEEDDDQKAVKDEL
# [21] = target: T9, Protein disulfide-isomerase; assay: PDI inhibitors, insulin aggregation turbidity, dose response, biochemical, absorbance, cherry-picked samples (AID 602350); assay type: functional
# [22] = target: 5-hydroxytryptamine receptor 2A (Mus musculus, UniProt P35363); assay type: functional, cell-based;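 further: CHO-K1 cells with tagged receptor and beta-arrestin; agonist potency measured as compound-induced activation of the receptor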
# Mu-type opioid receptor = Mu-type opioid receptor (Homo sapiens, UniProt P35372); assay type: functional, cell-based;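 further: U2OS cells with beta-arrestin recruitment to OPRM1 by beta-gal complementation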
# [23] = target: Long-chain-fatty-acid--AMP ligase FadD28 (Mycobacterium tuberculosis, UniProt P9WQ59); assay: Fluorescence polarization aasay to screen for inhibitors that compete for the binding of FadD28 to a bisubstrate Measured in Biochemical System Using Plate Reader - 2147-01_Inhibitor_Dose_CherryPick_Activity.; assay type: functional, Mycobacterium tuberculosis H37Rv
# [24] = target: ATP-dependent translocase ABCB1 (Homo sapiens, UniProt P08183); assay: ABCG2 efflux pump inhibitor potency, dose response, Ig-MXP3 cells, JC-1, flow cytometry, set 2 (AID 504566); assay type: functional; conditions: read-out: EC50_MICROM_;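 further: flow cytometry median green fluorescence of retained JC-1 dye; potency of efflux pump inhibition measured as rising substrate retention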
# ATP-dependent translocase ABCB1, sequence (P08183 whole entry): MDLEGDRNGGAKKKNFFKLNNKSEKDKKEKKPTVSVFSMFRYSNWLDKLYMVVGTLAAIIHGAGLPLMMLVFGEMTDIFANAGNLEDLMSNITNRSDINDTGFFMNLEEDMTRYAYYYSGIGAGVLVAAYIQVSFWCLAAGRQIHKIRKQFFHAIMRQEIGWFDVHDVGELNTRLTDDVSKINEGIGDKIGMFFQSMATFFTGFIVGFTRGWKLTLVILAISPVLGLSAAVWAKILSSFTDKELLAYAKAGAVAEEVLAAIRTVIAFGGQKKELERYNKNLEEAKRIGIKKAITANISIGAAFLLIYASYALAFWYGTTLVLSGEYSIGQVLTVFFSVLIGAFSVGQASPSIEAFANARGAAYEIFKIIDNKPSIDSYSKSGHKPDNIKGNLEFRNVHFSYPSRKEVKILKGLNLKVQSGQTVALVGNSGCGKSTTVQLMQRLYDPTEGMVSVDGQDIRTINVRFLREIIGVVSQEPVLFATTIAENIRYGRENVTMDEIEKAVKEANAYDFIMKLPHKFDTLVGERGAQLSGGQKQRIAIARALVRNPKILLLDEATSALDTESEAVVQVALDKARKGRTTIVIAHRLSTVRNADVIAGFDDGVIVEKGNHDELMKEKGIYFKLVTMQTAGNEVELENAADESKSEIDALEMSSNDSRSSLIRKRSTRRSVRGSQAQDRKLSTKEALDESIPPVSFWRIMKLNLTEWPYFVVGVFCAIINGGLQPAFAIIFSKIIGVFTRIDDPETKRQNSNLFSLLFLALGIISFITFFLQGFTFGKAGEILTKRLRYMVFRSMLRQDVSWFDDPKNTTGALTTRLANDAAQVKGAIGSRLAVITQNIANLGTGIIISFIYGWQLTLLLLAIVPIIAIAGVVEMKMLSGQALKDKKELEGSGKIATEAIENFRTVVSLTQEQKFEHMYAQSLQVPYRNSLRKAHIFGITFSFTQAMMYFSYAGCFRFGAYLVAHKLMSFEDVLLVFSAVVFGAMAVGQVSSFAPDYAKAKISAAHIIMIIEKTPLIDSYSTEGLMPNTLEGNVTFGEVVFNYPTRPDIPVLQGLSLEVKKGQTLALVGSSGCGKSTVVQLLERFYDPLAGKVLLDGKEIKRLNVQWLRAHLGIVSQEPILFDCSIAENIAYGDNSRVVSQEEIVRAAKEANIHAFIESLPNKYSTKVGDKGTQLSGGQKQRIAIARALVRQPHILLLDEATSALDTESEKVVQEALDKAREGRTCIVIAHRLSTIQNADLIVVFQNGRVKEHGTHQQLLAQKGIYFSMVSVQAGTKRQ
# H9c2 = assay: cells; assay type: functional, cell-based; conditions: Rattus norvegicus, H9c2, Myocardium;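 further: confirmatory concentration-response retest of ultra-high-throughput screening hits for modulation of myocardial damage; cell death induced by hydrogen peroxide oxidative stress; compound pretreatment for 60 min then peroxide exposure for 2 h; potency is for protecting the cells against peroxide damage rather than for killing them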
# [25] = target: Nuclear receptor subfamily 5 group A member 2 (Homo sapiens, UniProt O00482); assay type: functional, cell-based;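 further: HEK293T cells transfected with LRH-1 and a StAR promoter luciferase reporter; potency for inhibitors that lower LRH-1 driven reporter light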
# Steroidogenic factor 1 = Steroidogenic factor 1 (Homo sapiens, UniProt Q13285); assay: Counterscreen for inverse agonists of the liver receptor homolog-1 (LRH-1; NR5A2): Luminescence-based cell-based high throughput dose response assay to identify inverse agonists of the Steroidogenic Factor 1 Nuclear Receptor (SF1; NR5A1).; assay type: functional
# [26] = StAR promoter reporter inhibition counter-screen, dose response, counter-screen for LRH-1 inverse agonist project, cell-based, luminescence, luciferase reporter (AID 651969); assay type: functional
# [27] = A Cell-Based Confirmatory Screen for Compounds that Inhibit VEEV, TC-83 (8).; assay type: functional
# [28] = T. cruzi growth inhibition in host cells, dose response, cell-based, plate reader, dry powder, set 2 (AID 652275); assay type: functional
# [29] = MITF Orthogonal Assay: SK-MEL-5 CTG Assay Measured in Cell-Based System Using Plate Reader - 2084-02_Inhibitor_Dose_DryPowder_Activity_Set7.; assay type: functional
# [30] = TRPM1 promoter luciferase reporter signal decrease, dose response, MITF inhibitor project, cell-based, SK-MEL-5, dry powder, set 8 (AID 624430); assay type: functional
# [31] = MITF: Counter assay: A375 proliferation Measured in Cell-Based System Using Plate Reader - 2084-03_Inhibitor_Dose_DryPowder_Activity_Set8.; assay type: functional; conditions: A-375
# T1 sequence (P24666 whole entry): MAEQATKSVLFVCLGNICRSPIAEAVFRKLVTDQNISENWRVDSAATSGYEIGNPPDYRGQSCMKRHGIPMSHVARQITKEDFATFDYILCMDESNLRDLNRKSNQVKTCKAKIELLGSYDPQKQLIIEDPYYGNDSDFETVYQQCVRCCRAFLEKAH
compound,measurement,setting,value
CN(C)c1cc(-c2ccc(Cl)c(Cl)c2)oc(=O)c1Cl,IC50,[1],35.4 µM (inactive)
same,IC50,[2],8.63 µM (active)
Cc1cc(NC(=O)c2nn3cccnc3c2Cl)no1,EC50,[3],> 67.5 µM (inactive)
O=S(=O)(Nc1cccc(-c2ccc(N3CCCCCC3)nn2)c1)c1ccccc1F,IC50,[4],> 67.6 µM (inactive)
same,IC50,Fatty acid synthase [5],6.9 µM (active)
same,IC50,Fatty acid synthase [6],7.03 µM (active)
same,CC50,[7],> 50 µM (active)
same,IC50,cells,> 67.6 µM (inactive)
CCOC(=O)C1=C(C)c2ccccc2N(C(=O)OC)C1(C)C(=O)OCC (stereo unspecified),IC50,[8],15.6 µM (active)
same,IC50,[9],34.6 µM (active)
Nc1cc(Cl)ccc1Oc1ccc2ccccc2c1,IC50,[10],> 69.5 µM (inactive)
same,AC50,[11],5.81 µM (active)
same,IC50,[12],29.6 µM (inactive)
Cc1c(C(=O)N2CCCC2)oc2ccc(Br)cc12,AC50,Vero,35.1 µM (active)
same,AC50,Caspase-6,23.5 µM (active)
Sc1nnc(-c2ccccc2)n1Cc1ccccc1,IC50,Beta-lactamase [13],> 59.6 µM (inactive)
same,IC50,Beta-lactamase [14],> 59.6 µM (inactive)
same,IC50,Beta-lactamase [15],> 59.6 µM (inactive)
Cc1ccc(NC(=O)c2ccc(Cl)cc2Cl)cc1O,IC50,[16],> 67.6 µM (inactive)
same,AC50,[17],26 µM (active)
same,IC50,HEK293,> 67.6 µM (inactive)
Nc1nc(-c2ccccc2)c(N=Nc2cccc3ccccc23)s1,EC50,Streptococcus,> 150 µM (not active)
same,IC50,[18],31.3 µM (inactive)
same,IC50,Nonstructural protein 1,9.98 µM (active)
same,EC50,[19],4.14 µM (active)
same,EC50,Streptokinase A,> 150 µM (not active)
CC(C)N(C)C(=O)CCc1nnc(CCc2c[nH]c3ccccc23)o1,AC50,[20],0.009 µM (active)
same,AC50,[21],< 0.009 µM (active)
CCOc1cc(CN2CCN(C(=O)c3ccco3)CC2)ccc1OC,EC50,[22],5.88 µM (active)
same,EC50,Mu-type opioid receptor,92.5 µM (inactive)
Cc1ccc(NC(S)=NNc2ccc(C(=O)O)cc2[N+](=O)[O-])cc1C,AC50,[23],> 100 µM (inactive)
COc1ccc(-c2cc3nc(C)cc(N4CCN(C(=O)c5ccoc5)CC4)n3n2)cc1,EC50,[24],6.12 µM (active)
same,IC50,H9c2,27.3 µM (active)
COc1cccc(-c2cnc3c(NC(C)=O)cc(-c4ccc(S(C)(=O)=O)cc4)cn23)c1,IC50,[25],9.25 µM (active)
same,IC50,Steroidogenic factor 1,4.62 µM (active)
same,IC50,[26],23.5 µM (inactive)
CCN1CCN(Cc2nc3ncc([N+](=O)[O-])cc3c(=O)n2-c2ccccc2)CC1,IC50,[27],0.832 µM (active)
CC(C)N1C[C@@H](CN(C)Cc2ccc(Cl)cc2)Oc2c(NC(=O)c3ccnnc3)cccc2C1=O,AC50,[28],0.198 µM (active)
CCN1CCN(C2=C(Nc3ccc(F)cc3)C(=O)c3ccccc3C2=O)CC1,AC50,[29],11.9 µM (active)
same,AC50,[30],3.49 µM (active)
same,AC50,[31],> 70 µM (inactive)
